{"source": "PubChem BioAssay (NCI)", "test_in_all_cases": "NCI-60 cell line screen, 384-well format", "key": {"[1]": {"tested_on": "PC-3 prostate"}, "[2]": {"tested_on": "TK-10 renal"}, "[3]": {"tested_on": "OVCAR-5 ovarian"}, "[4]": {"tested_on": "RXF 393 renal"}, "[5]": {"tested_on": "HCC-2998 colon"}, "[6]": {"tested_on": "NCI/ADR-RES ovarian"}, "[7]": {"tested_on": "SK-MEL-2 melanoma"}, "[8]": {"tested_on": "U251 glioblastoma"}, "[9]": {"tested_on": "K-562 leukemia"}, "[10]": {"tested_on": "MDA-MB-231 breast"}, "[11]": {"tested_on": "MALME-3M melanoma"}, "[12]": {"tested_on": "OVCAR-3 ovarian"}, "[13]": {"tested_on": "HCT-15 colon"}}, "note": "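Here, GI50 denotes the concentration required for 50% inhibition of growth. TGI: concentration producing complete growth inhibition.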", "data": [{"smiles": "Cc1cc([C@H](C)Nc2nccc(N3C(=O)OC[C@@H]3[C@H](C)F)n2)ncc1-c1ccnc(C(F)(F)F)c1", "values": [{"measurement": "GI50", "setting": "[1]", "value": 27.7, "unit": "µM"}, {"measurement": "TGI", "setting": "[1]", "value": "> 100", "unit": "µM"}, {"measurement": "GI50", "setting": "[2]", "value": 27.8, "unit": "µM"}, {"measurement": "TGI", "setting": "[2]", "value": "> 100", "unit": "µM"}, {"measurement": "GI50", "setting": "[3]", "value": 53.9, "unit": "µM"}, {"measurement": "TGI", "setting": "[3]", "value": "> 100", "unit": "µM"}, {"measurement": "GI50", "setting": "[4]", "value": 15.7, "unit": "µM"}, {"measurement": "TGI", "setting": "[4]", "value": 76.5, "unit": "µM"}, {"measurement": "GI50", "setting": "[5]", "value": 24.6, "unit": "µM"}, {"measurement": "TGI", "setting": "[5]", "value": "> 100", "unit": "µM"}, {"measurement": "GI50", "setting": "[6]", "value": 16.2, "unit": "µM"}, {"measurement": "TGI", "setting": "[6]", "value": 94.4, "unit": "µM"}, {"measurement": "GI50", "setting": "[7]", "value": 82.9, "unit": "µM"}, {"measurement": "TGI", "setting": "[7]", "value": "> 100", "unit": "µM"}, {"measurement": "GI50", "setting": "[8]", "value": 36.4, "unit": "µM"}, {"measurement": "TGI", "setting": "[8]", "value": "> 100", "unit": "µM"}, {"measurement": "GI50", "setting": "[9]", "value": 8.88, "unit": "µM"}, {"measurement": "TGI", "setting": "[9]", "value": "> 100", "unit": "µM"}, {"measurement": "GI50", "setting": "[10]", "value": 46.4, "unit": "µM"}, {"measurement": "TGI", "setting": "[10]", "value": "> 100", "unit": "µM"}, {"measurement": "GI50", "setting": "[11]", "value": 28.3, "unit": "µM"}, {"measurement": "TGI", "setting": "[11]", "value": "> 100", "unit": "µM"}, {"measurement": "GI50", "setting": "[12]", "value": 22.2, "unit": "µM"}, {"measurement": "TGI", "setting": "[12]", "value": 72.3, "unit": "µM"}, {"measurement": "GI50", "setting": "[13]", "value": 33.9, "unit": "µM"}, {"measurement": "TGI", "setting": "[13]", "value": "> 100", "unit": "µM"}]}]}
